Experiments:
[1] = biological target: T1, AXL (Homo sapiens, UniProt P30530); assay: TR-FRET kinase activity assay, AXL; format: biochemical; conditions: ATP at Km, 60 minutes
T1 sequence (P30530 26-894): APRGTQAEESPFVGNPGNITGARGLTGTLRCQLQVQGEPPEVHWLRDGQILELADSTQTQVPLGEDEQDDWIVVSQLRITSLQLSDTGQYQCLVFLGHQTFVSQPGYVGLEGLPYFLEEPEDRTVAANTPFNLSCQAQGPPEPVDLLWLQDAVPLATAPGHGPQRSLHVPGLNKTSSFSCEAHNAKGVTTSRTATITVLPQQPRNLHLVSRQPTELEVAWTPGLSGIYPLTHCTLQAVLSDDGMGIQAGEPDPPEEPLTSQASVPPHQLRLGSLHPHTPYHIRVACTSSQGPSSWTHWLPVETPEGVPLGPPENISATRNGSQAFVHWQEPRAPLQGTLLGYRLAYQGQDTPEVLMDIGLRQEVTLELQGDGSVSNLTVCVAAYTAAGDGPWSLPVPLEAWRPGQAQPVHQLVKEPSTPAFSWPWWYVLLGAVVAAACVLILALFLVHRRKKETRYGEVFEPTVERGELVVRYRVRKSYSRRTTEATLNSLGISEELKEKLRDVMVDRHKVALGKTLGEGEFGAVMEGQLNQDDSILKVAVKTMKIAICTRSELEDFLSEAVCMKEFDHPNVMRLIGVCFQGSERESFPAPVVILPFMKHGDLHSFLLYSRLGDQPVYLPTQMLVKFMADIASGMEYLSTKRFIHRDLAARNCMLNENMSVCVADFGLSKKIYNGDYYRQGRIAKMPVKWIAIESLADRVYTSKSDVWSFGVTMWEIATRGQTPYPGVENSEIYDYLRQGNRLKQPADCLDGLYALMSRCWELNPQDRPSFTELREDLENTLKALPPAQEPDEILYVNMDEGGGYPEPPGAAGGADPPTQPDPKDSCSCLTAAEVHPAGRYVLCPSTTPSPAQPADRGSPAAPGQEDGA
Method in brief: (§1)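 Each kinase phosphorylates a fluorescently labeled peptide on tyrosine in the presence of compound, with ATP at its Km, for 60 min at RT in HEPES pH 7.5 buffer with MgCl2, EGTA, Brij 35 and DTT. Product is detected by TR-FRET with a Europium-labeled phospho-specific antibody; IC50 values follow.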

[2] = biological target: T2, MERTK (Homo sapiens, UniProt Q12866); assay: TR-FRET kinase activity assay, MERTK; format: biochemical; conditions: for IC50: TR-FRET activity assay, ATP at Km, 60 minutes, read-out: Mer IC50; for Mer/Flt3 ratio (FLT3 IC50/Mer IC50): ratio calculated as FLT3 IC50/Mer IC50
T2 sequence (Q12866 21-999): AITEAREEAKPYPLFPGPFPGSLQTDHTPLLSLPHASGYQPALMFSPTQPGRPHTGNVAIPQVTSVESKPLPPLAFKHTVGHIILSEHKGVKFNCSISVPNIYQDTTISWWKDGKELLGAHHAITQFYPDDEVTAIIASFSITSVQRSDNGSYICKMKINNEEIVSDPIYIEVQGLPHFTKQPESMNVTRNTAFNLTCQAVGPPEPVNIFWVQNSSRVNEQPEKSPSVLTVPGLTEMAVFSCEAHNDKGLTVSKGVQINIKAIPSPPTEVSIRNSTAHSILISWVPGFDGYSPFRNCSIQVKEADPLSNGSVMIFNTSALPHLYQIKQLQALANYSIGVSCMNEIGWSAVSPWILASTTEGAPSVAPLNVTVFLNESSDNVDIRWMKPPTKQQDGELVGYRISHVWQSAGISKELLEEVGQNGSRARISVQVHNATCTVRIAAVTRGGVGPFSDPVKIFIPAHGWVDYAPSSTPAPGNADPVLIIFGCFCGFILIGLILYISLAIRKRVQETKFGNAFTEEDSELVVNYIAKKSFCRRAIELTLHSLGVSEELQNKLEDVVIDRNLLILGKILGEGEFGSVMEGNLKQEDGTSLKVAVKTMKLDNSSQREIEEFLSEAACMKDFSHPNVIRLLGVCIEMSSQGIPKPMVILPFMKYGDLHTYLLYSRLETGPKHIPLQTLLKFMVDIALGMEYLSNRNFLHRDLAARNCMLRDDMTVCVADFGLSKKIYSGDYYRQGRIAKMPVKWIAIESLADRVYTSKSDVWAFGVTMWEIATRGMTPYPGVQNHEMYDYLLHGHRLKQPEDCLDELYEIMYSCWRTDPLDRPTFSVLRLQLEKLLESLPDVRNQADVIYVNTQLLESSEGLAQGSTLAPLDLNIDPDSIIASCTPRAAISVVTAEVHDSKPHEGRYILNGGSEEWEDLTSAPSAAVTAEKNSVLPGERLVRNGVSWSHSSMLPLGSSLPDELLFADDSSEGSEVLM
Method in brief: as §1

Row | SMILES | IC50 [1] | IC50 [2] | Mer/Flt3 ratio (FLT3 IC50/Mer IC50) [2]
1 | CCCC(C)Nc1ncc2c(O[C@H]3CC[C@@H](O)CC3)ncc([C@H]3CC[C@H](O)CC3)c2n1 (stereo partly drawn) [Compound 148] | 100 to 1000 nM | ≤ 100 nM | +++ (a ratio of >100)
2 | CCCC(C)Nc1ncc2c(=O)n(C3CCN(CC(=O)N(C)C)CC3)cc([C@H]3CC[C@@H](O)CC3)c2n1 (stereo partly drawn) [Compound 149] | 100 to 1000 nM | ≤ 100 nM | +++ (a ratio of >100)
3 | CCCC(C)Nc1ncc2c(=O)n(C3CCN(CCOC)CC3)cc([C@H]3CC[C@H](O)CC3)c2n1 (stereo partly drawn) [Compound 150] | 100 to 1000 nM | ≤ 100 nM | +++ (a ratio of >100)
4 | CCCC(C)Nc1ncc2c(=O)n(C3CCN(CCC(=O)N(C)C)CC3)cc([C@H]3CC[C@H](O)CC3)c2n1 (stereo partly drawn) [Compound 151] | 100 to 1000 nM | ≤ 100 nM | +++ (a ratio of >100)
5 | CCC[C@@H](C)Nc1ncc2c(=O)n(C3CCNCC3)cc([C@H]3CC[C@H](O)CC3)c2n1 [Compound 152] | 1000 to 10000 nM | ≤ 100 nM | +++ (a ratio of >100)
6 | CCCC(C)Nc1ncc2c(OC3CCC(F)(F)CC3)ncc([C@H]3CC[C@H](O)CC3)c2n1 (stereo partly drawn) [Compound 153] | 1000 to 10000 nM | ≤ 100 nM | +++ (a ratio of >100)
7 | CCCC(C)Nc1ncc2c(NC3CCN(C)CC3)ncc([C@H]3CC[C@H](O)CC3)c2n1 (stereo partly drawn) [Compound 154] | ≤ 100 nM | ≤ 100 nM | +++ (a ratio of >100)
8 | CCCC(C)Nc1ncc2c(N3CCC(NC)CC3)ncc([C@H]3CC[C@H](O)CC3)c2n1 (stereo partly drawn) [Compound 155] | 100 to 1000 nM | ≤ 100 nM | +++ (a ratio of >100)
9 | CCCC(C)Nc1ncc2c(N3CC[C@@H](N(C)C)C3)ncc([C@H]3CC[C@H](O)CC3)c2n1 (stereo partly drawn) [Compound 156] | 100 to 1000 nM | ≤ 100 nM | ++ (a ratio of between 10 and 100)
10 | CCCC(C)Nc1ncc2c(OC[C@H]3CC[C@@H](O)CC3)ncc([C@H]3CC[C@H](O)CC3)c2n1 (stereo partly drawn) [Compound 157] | 100 to 1000 nM | ≤ 100 nM | ++ (a ratio of between 10 and 100)
11 | CCCC(C)Nc1ncc2c(NC3CCNCC3)ncc([C@H]3CC[C@H](O)CC3)c2n1 (stereo partly drawn) [Compound 158] | ≤ 100 nM | ≤ 100 nM | +++ (a ratio of >100)
12 | CCCC(C)Nc1ncc2c(N3CC[C@H](N(C)C)C3)ncc([C@H]3CC[C@H](O)CC3)c2n1 (stereo partly drawn) [Compound 159] | 1000 to 10000 nM | ≤ 100 nM | ++ (a ratio of between 10 and 100)
13 | CCCC(C)Nc1ncc2c(OC[C@H]3CC[C@H](O)CC3)ncc([C@H]3CC[C@H](O)CC3)c2n1 (stereo partly drawn) [Compound 160] | 100 to 1000 nM | ≤ 100 nM | +++ (a ratio of >100)
14 | CCCC(C)Nc1ncc2c(OC3CC(C)(C)N(C)C(C)(C)C3)ncc([C@H]3CC[C@H](O)CC3)c2n1 (stereo partly drawn) [Compound 161] | ≤ 100 nM | ≤ 100 nM | +++ (a ratio of >100)
15 | CN1CCC(Nc2ncc3c(OC4CCNCC4)ncc([C@H]4CC[C@H](O)CC4)c3n2)C1=O (stereo partly drawn) [Compound 162] | 1000 to 10000 nM | 1000 to 10000 nM | + (a ratio of >2.0 and <10)
16 | Cc1nccn1CCNc1ncc2c(OC3CCNCC3)ncc([C@H]3CC[C@H](O)CC3)c2n1 [Compound 163] | 1000 to 10000 nM | 1000 to 10000 nM | + (a ratio of >2.0 and <10)
17 | O[C@H]1CC[C@H](c2cnc(OC3CCNCC3)c3cnc(NC4CCC(F)(F)CC4)nc32)CC1 [Compound 164] | 1000 to 10000 nM | ≤ 100 nM | ++ (a ratio of between 10 and 100)
18 | CCCC(C)Nc1ncc2c(NC3CCN(C(=O)C(F)(F)F)CC3)ncc([C@H]3CC[C@H](O)CC3)c2n1 (stereo partly drawn) [Compound 165] | 100 to 1000 nM | ≤ 100 nM | +++ (a ratio of >100)
19 | CCCC(C)Nc1ncc2c(OC3CCNCC3)ncc([C@H]3CC[C@H](O)CC3)c2n1 (stereo partly drawn) [Compound 166] | 100 to 1000 nM | ≤ 100 nM | +++ (a ratio of >100)
20 | CC1CC(Nc2ncc3c(OC4CCNCC4)ncc([C@H]4CC[C@H](O)CC4)c3n2)C1 (stereo partly drawn) [Compound 167] | ≤ 100 nM | ≤ 100 nM | ++ (a ratio of between 10 and 100)
21 | CC1CC(Nc2ncc3c(OC4CCNCC4)ncc([C@H]4CC[C@@H](O)CC4)c3n2)C1 (stereo partly drawn) [Compound 168] | 100 to 1000 nM | ≤ 100 nM | ++ (a ratio of between 10 and 100)
22 | CCCC(C)Nc1ncc2c(=O)n(CCN(C)C)cc([C@H]3CC[C@H](O)CC3)c2n1 (stereo partly drawn) [Compound 169] | 1000 to 10000 nM | ≤ 100 nM | +++ (a ratio of >100)
23 | CCCC(C)Nc1ncc2c(OC3CCN(CCC(=O)N(C)C)CC3)ncc([C@H]3CC[C@H](O)CC3)c2n1 (stereo partly drawn) [Compound 170] | 100 to 1000 nM | ≤ 100 nM | +++ (a ratio of >100)
24 | CCC[C@H](C)Nc1ncc2c(OC3CCNCC3)ncc([C@H]3CC[C@H](O)CC3)c2n1 [Compound 171] | ≤ 100 nM | ≤ 100 nM | +++ (a ratio of >100)
25 | CCCC(C)Nc1ncc2c(OC3CCN(CC(=O)N(C)C)CC3)ncc([C@H]3CC[C@H](O)CC3)c2n1 (stereo partly drawn) [Compound 172] | 100 to 1000 nM | ≤ 100 nM | +++ (a ratio of >100)
26 | CCCC(C)Nc1ncc2c(OC3CCN(CCOC)CC3)ncc([C@H]3CC[C@H](O)CC3)c2n1 (stereo partly drawn) [Compound 173] | 100 to 1000 nM | ≤ 100 nM | +++ (a ratio of >100)
